Assay [1] has as its system CD4+ T cell clone 2C5 spiked at 1% into DR1+ PBMCs. Nature of the assay: Multimer dilution assay. The assay is classed as cell-based, human. How it is done: Each multimer was serially diluted six times (1, 0.5, 0.25, 0.125, 0.0625, 0.0312, or 0.0156 μg with respect to the pMHC-II component) and used in a final volume of 20 μl to stain 1 × 10^6 DR1^+ PBMCs spiked at 1% with the CD4^+ T cell clone 2C5. After incubation for 20 min at 4°C, cells were washed twice in PBS, stained with Live/Dead fixable aqua (Invitrogen) for 10 min at room temperature and labeled with mouse anti-human CD3-FITC (Serotec), mouse anti-human CD4-allophycocyanin (BD Biosciences), mouse anti-human CD14–Pacific Blue (Invitrogen), and mouse anti-human CD19–Pacific Blue (Invitrogen) for 20 min at 4°C. After two further washes in PBS, samples were acquired directly on a FACSCanto II flow cytometer (BD Biosciences). Data were analyzed using FlowJo software version 10 (Tree Star).

A further assay deals with CD4+ T cell clone DC-D8. Nature of the assay: Multimer staining of CD4+ T cell clone DC-D8. The conditions noted are these: histograms, Fig. 6C. The assay is classed as cell-based, human. How it is done:
(§1) Clonal CD4^+ T cells (1 × 10^5) specific for HA306–318 were resuspended with 1 μg DR1-Flu1 or DR1-Flu3 multimer and incubated for 20 min at 4°C ([45]). Cells were then washed twice with PBS, stained with Live/Dead fixable violet (ViViD; Invitrogen) for 10 min at room temperature and labeled with mouse anti-human CD4-allophycocyanin (BD Biosciences) for 20 min at 4°C. After two further washes in PBS, samples were acquired directly on a FACSCanto II flow cytometer (BD Biosciences). Data were analyzed using FlowJo software version 10 (Tree Star). All incubations with fluorochrome-conjugated pMHC-II multimers were performed in the dark.

The subject of a further assay is CD4+ T cell clone DC-C10. In words: Multimer staining of CD4+ T cell clone DC-C10. The assay is classed as cell-based, human. The conditions noted are these: histograms, Fig. 6B. The protocol: as §1
In assay [2] the test system is CD4+ T cell clone 2C5 spiked into PBMCs. In words: Clone dilution assay. To be noted: 0.125 μg multimer/1 × 10^6 PBMCs. Type of assay: cell-based, human. The protocol: PBMCs (2 × 10^6) were spiked at 1, 0.5, 0.25, 0.125, 0.0625, or 0.0312% with the CD4^+ T cell clone 2C5. Cell mixtures were then stained with 0.125 μg multimer/1 × 10^6 PBMCs and labeled with Abs as described in the previous section. Samples were acquired directly on a FACSCanto II flow cytometer (BD Biosciences) and analyzed using FlowJo software version 10 (Tree Star).

Assay [3] has as its system HA1.7 TCR. In words: Thermodynamic analysis (SPR, nonlinear van't Hoff) of HA1.7 TCR ligation. The assay is classed as binding, human. The conditions noted are these: HA1.7-DR1-Flu3, 298 K; Biacore T100; 10 serial dilutions of TCR at 5, 10, 15, 20, 25, 30°C; triplicate. How it is done: Thermodynamic analysis of HA1.7 TCR ligation to DR1-Flu3 was performed using a Biacore T100 (GE Healthcare) equipped with a CM5 sensor chip. Activation and pMHC-II loading were assessed as previously described ([40]). A total of 500 response units of biotinylated pMHC-II were immobilized to streptavidin, which was chemically linked to the chip surface. Equilibrium binding analysis was performed with 10 serial dilutions of the TCR individually injected at temperatures of 5, 10, 15, 20, 25, and 30°C. Experiments were performed in triplicate using a blank flow cell, A2-[…] and DR1-CLIP as negative controls in separate experiments. The binding response was determined by subtraction of the response measured on a negative control flow cell from the response measured on flow cells containing DR1-Flu3. Results were analyzed using BIAevaluation 3.1, Microsoft Excel, and Origin 6.1. The KD values were calculated using a nonlinear curve fit [y = (P1x)/(P2 + x)].
In general terms: Surface plasmon resonance follows binding to a sensor surface in real time, without labels.

In assay [4] the test system is CD4+multimer+ T cells in PBMCs after influenza vaccination. The assay is classed as cell-based, human.
A further assay concerns CD4+ T cell clone 2C5. In words: pMHC-II multimer staining of CD4+ T cell clone 2C5. Type of assay: cell-based, human. The conditions noted are these: DR1-Flu3 versus DR1-Flu1 multimer; 1 μg multimer, 1 × 10^5 cells, 20 min at 4°C. How it is done:
as §1

Assay [5] has as its system Flu1 peptide-stimulated DR1+ PBMCs (CD4+ T cells). Nature of the assay: Multimer staining following PBMC culture. The conditions noted are these: four DR1+ donors, 12 d after HA306–318 stimulation. Type of assay: cell-based, human. The protocol:
(§2) Flu1 peptide–stimulated, precultured PBMCs (5 × 10^5) were transferred to a 96-well plate and washed with PBS. Cell pellets were resuspended in 25 nM […] dasatinib (Axon Medchem, Reston, VA) and incubated for 30 min at 37°C. For each multimer, 0.5 μg was added directly to the cell pellet before incubating for 20 min on ice in the dark. Where dual staining with both PE- and allophycocyanin-conjugated multimers was used, 0.5 μg each was mixed per sample prior to addition to the cell pellets. Cells were then washed twice with cold PBS, followed by Live/Dead aqua (Life Technologies) staining to exclude dead cells. Surface staining was subsequently performed in PBS, 2.5% FCS, and 5 mM EDTA (FACS buffer), with the following cell surface markers: CD3-PerCP-Cy5.5 (BD Biosciences), CD4–Brilliant Violet 421 (BioLegend), CD14-FITC (BioLegend), and CD19-FITC (BioLegend). Cells were incubated for 20 min at 4°C in the dark before resuspending in FACS buffer for acquisition on a FACSCanto II (BD Biosciences). Data were analyzed using FlowJo version 10 (Tree Star).

The next assay has as its target 2C5 TCR. Nature of the assay: SPR equilibrium binding of 2C5 TCR to DR1-peptide. The arrangement: species or system human. The conditions noted are these: 25°C; for Kd: SPR equilibrium binding, Biacore 3000, CM5 chip, biotinylated pMHC-II immobilized on streptavidin, 2C5 TCR injected in eight serial dilutions, 45 μl/min. The protocol:
Binding analysis was performed using a Biacore 3000 (GE Healthcare) equipped with a CM5 sensor chip, as reported previously ([43], [44]). Between 200 and 400 response units of biotinylated pMHC-II was immobilized on streptavidin, which was chemically linked to the chip surface. pMHC-II was injected at a slow-flow rate (10 μl/min) to ensure uniform distribution on the chip surface. The 2C5 TCR was purified and concentrated to ∼100 μM on the day of analysis to minimize TCR aggregation. For equilibrium analysis, eight serial dilutions were carefully prepared and injected over the relevant sensor chip at a flow rate of 45 μl/min at 25°C. Results were analyzed using BIAevaluation 3.1, Microsoft Excel, and Origin 6.1. The KD values were calculated using a nonlinear curve fit [y = P1x/(P2 + x)].

For assay [6], the system named is Flu1 peptide-stimulated DR1+ PBMCs of donor 4 (CD4+ T cells). In words: Dual multimer staining following PBMC culture. The assay is classed as cell-based, human. The conditions noted are these: dual stain 1 vs dual stain 2, donor 4. The protocol: as §2
In assay [7] the test system is CD4+ T cells in DR1+ PBMCs ex vivo. The assay is classed as cell-based, human.
For the next assay, the system named is HA1.7, F11, and C6 TCRs. To be noted: three TCRs HA1.7, F11, C6; presented by DR1; vs Flu1; cited from earlier work.
Assay [8] concerns HA1.7 TCR. To be noted: HA1.7-DR1-Flu1, 298 K, nonlinear regression of temperature vs free energy; previously published; cited from earlier work. From the text:
FIGURE 1. The biophysical impact of altered C-terminal PFRs on TCR binding. SPR was used to determine equilibrium binding of the 2C5 TCR to DR1 complexed with either (A) native Flu1 (HA306−318, […]) or (B) altered Flu3 ([…]). (C) Previously published thermodynamic analysis of the HA1.7-DR1-Flu1 interaction ([40]). (D) HA1.7-DR1-Flu3 thermodynamic properties showing enthalpy (ΔH^o) and entropy (TΔS^o) at 298 K calculated by nonlinear regression of temperature (K) plotted against free energy (ΔG^o). TEXT PRINTED IN THE PICTURE: (A) 2C5-DR1-Flu1: KD = 30 ± 2 μM | (B) 2C5-DR1-F ...

In assay [9] the test system is T cells of three DR1+ donors. In words: IFN-γ ELISPOT. The assay is classed as cell-based, human. To be noted: all three donors; data not shown.

Like-named read-outs stand apart in the source and are kept apart here. A value given as a limit tells only on which side of the number the result lay.

Consider four sequences from PMC4671089, “Enhanced Detection of Antigen-Specific CD4^+ T Cells Using Altered Peptide Flanking Residue Peptide–MHC Class II Multimers” (The Journal of Immunology Author Choice, 2015).

A word on the Kd: it is the free concentration of one partner at which half of the binding sites on the other are occupied at equilibrium, for simple one-to-one binding.

For the sequence “PKYVKQNTLKLAR [DR1-Flu3, HLA-DR1 heterodimer complexed with altered Flu3 ([…]); monomer in SPR, fluorochrome-tagged multimer in staining]”, the “identification of CD4+multimer+ population at 1 μg/1 × 10^6 PBMCs” value in assay [1] (PBMCs spiked at 1% with 2C5, 20 min at 4°C) was “enabled clear visualization and accurate enumeration”. The “lowest multimer concentration with distinct staining” value in [1] (PBMCs spiked at 1% with 2C5, 20 min at 4°C, distinct staining at concentrations down to this value) stood at 0.0312 μg/1 × 10^6 PBMCs. In addition, the “optimal quantity of multimer per stain” value in assay [1] (greatest shift in MFI while reducing potential nonspecific staining) is listed as 0.125 μg/1 × 10^6 PBMCs. In the assay with CD4+ T cell clone DC-D8, the “staining of clone DC-D8” value is listed as “stained”. Moreover, the “staining of clone DC-C10” value with CD4+ T cell clone DC-C10 is reported as “stained”. For the same sequence, the “ability to detect cognate CD4+ T cells across range of spiked frequencies” value in [2] (2C5 spiked at 1 to 0.0312%, compared with DR1-Flu1) was “far superior ability to detect cognate CD4^+ T cells across the entire range of spiked frequencies”. In the assay with HA1.7 TCR [3], the “TΔS°” value was 20 kcal/mol and the “ΔH°” value is 16.4 kcal/mol. In addition, the “population of CD4+ T cells identified compared with DR1-Flu1 multimer” value in assay [4] was “identified a larger population of CD4^+ T cells”. In addition, the “mean fluorescence intensity (MFI) of staining of 2C5 clone” value with CD4+ T cell clone 2C5 is reported as “A large increase in mean fluorescence intensity (MFI)”. The “CD4+multimer+ population size and MFI compared with DR1-Flu1 multimer” value in [5] is recorded as “detected larger populations of CD4^+multimer^+ cells, with generally greater MFIs”. The Kd on 2C5 TCR is 16 ± 2 µM. Moreover, in the assay on 2C5 TCR (SPR, vs DR1-Flu1), the “affinity of 2C5 TCR, fold stronger compared with wild-type C-terminal PFR sequence” value is listed as approximately 2 fold. Also, the “detection of additional, presumably lower avidity, cells compared with DR1-Flu1” value in [6] is given as “able to detect additional, presumably lower avidity, cells compared with DR1-Flu1”. In assay [7], the “MFI, fold higher than DR1-Flu1” value was found to be 3 fold and the “proportion of CD4+ T cells stained compared with DR1-Flu1 multimer” value is “stained a higher proportion of CD4^+ T cells”.
For “PKYVKQNTLKLAR [Flu3, C-terminally modified variants of HA306−318 with Arg at P11 (Flu3, […])]”, the binding affinity increase with HA1.7, F11, and C6 TCRs was approximately 2 fold.
As for “PKYVKQNTLKLAT [DR1-Flu1, HLA-DR1 heterodimer complexed with native Flu1 (HA306−318, …); monomer in SPR, fluorochrome-tagged multimer in staining]”, the “identification of cognate CD4+ T cells at lower reagent concentrations” value in assay [1] (below 1 μg/1 × 10^6 PBMCs, PBMCs spiked at 1% with 2C5) is listed as “failed to identify cognate CD4^+ T cells”. Further, the “staining of clone DC-D8” value with CD4+ T cell clone DC-D8 is on record as “stained”. Moreover, the “staining of clone DC-C10” value in the assay on CD4+ T cell clone DC-C10 is on record as “stained”. The “spiked frequency at which precise quantification was almost impossible” value in [2] (poor separation) is not above 0.25%. Besides, in the assay on HA1.7 TCR [8], the “TΔS°” value is recorded as 23.8 kcal/mol and the “ΔH°” value was 18 kcal/mol. The sequence also came in with an equilibrium dissociation constant (Kd) at 2C5 TCR of 30 ± 2 µM.
As for “PKYVKQNTLKLAT [Flu1, influenza HA306–318 (Flu1), …]”, in assay [9], the “T cell responses in IFN-γ ELISPOT assays” value was “robust T cell responses”.
